Data as given in ChEMBL document CHEMBL4359906, “Design and synthesis of new N-terminal fatty acid modified-antimicrobial peptide analogues with potent in vitro biological activity” (Eur J Med Chem, 2019).
Values after ≈ are worked out from the molar mass of the structure shown. Active and inactive are the calls of the source. No cut-off for these calls is given here.

Tests used:
Escherichia coli [1] = assay: Antibacterial activity against Escherichia coli ATCC 25922 after 18 hrs by CLSI based broth microdilution method; assay type: functional; settings: ATCC 25922, 18 h
Escherichia coli [2] = assay: Antibacterial activity against Escherichia coli ATCC 43837 after 18 hrs by CLSI based broth microdilution method; assay type: functional; settings: ATCC 43837, 18 h
Klebsiella pneumoniae [3] = assay: Antibacterial activity against Klebsiella pneumoniae ATCC 700603 after 18 hrs by CLSI based broth microdilution method; assay type: functional; settings: Klebsiella pneumoniae, 700603, 18 h
Pseudomonas aeruginosa [4] = assay: Antibacterial activity against Pseudomonas aeruginosa ATCC 27853 after 18 hrs by CLSI based broth microdilution method; assay type: functional; settings: ATCC 27853, 18 h
Staphylococcus aureus [5] = assay: Antibacterial activity against Staphylococcus aureus ATCC 25923 after 18 hrs by CLSI based broth microdilution method; assay type: functional; settings: ATCC 25923, 18 h
Staphylococcus aureus [6] = assay: Antibacterial activity against methicillin-resistant Staphylococcus aureus 936 after 18 hrs by CLSI based broth microdilution method; assay type: functional; settings: Staphylococcus aureus, 936, 18 h
Bacillus subtilis = assay: Antibacterial activity against Bacillus subtilis ATCC 23857 after 18 hrs by CLSI based broth microdilution method; assay type: functional; settings: ATCC 23857, 18 h
Erythrocyte = assay: Hemolytic activity in human RBC measured after 1 hr by microplate reader analysis; assay type: ADME, cell-based
[7] = Selectivity index, ratio of MHC10 for human RBC to geometric mean of peptide MIC for gram negative bacteria; assay type: toxicity; settings: human red blood cells, read-out: Selectivity Index
Escherichia coli [8] = assay: Potentiation of polymyxin B-induced antibacterial activity against Escherichia coli ATCC 25922 assessed as FICI after 18 hrs by checker board assay; assay type: functional
Klebsiella pneumoniae [9] = assay: Potentiation of polymyxin B-induced antibacterial activity against Klebsiella pneumoniae ATCC 700603 assessed as FICI after 18 hrs by checker board assay; assay type: functional
Pseudomonas aeruginosa [10] = assay: Potentiation of polymyxin B-induced antibacterial activity against Pseudomonas aeruginosa ATCC 27853 assessed as FICI after 18 hrs by checker board assay; assay type: functional
Escherichia coli [11] = assay: Potentiation of rifampicin-induced antibacterial activity against Escherichia coli ATCC 25922 assessed as FICI after 18 hrs by checker board assay; assay type: functional
Klebsiella pneumoniae [12] = assay: Potentiation of rifampicin-induced antibacterial activity against Klebsiella pneumoniae ATCC 700603 assessed as FICI after 18 hrs by checker board assay; assay type: functional
Pseudomonas aeruginosa [13] = assay: Potentiation of rifampicin-induced antibacterial activity against Pseudomonas aeruginosa ATCC 27853 assessed as FICI after 18 hrs by checker board assay; assay type: functional
Escherichia coli [14] = assay: Antibacterial activity against Escherichia coli ATCC 25922 at 0.5 times MIC incubated for 18 hrs measured for 15 passages by CLSI based broth microdilution method; assay type: functional, organism-based
Escherichia coli [15] = assay: Antibiofilm activity against Escherichia coli ATCC 25922 after 24 hrs by crystal violet staining based assay; assay type: functional, organism-based
Staphylococcus aureus [16] = assay: Antibiofilm activity against Staphylococcus aureus ATCC 25923 after 24 hrs by crystal violet staining based assay; assay type: functional, organism-based
Escherichia coli [17] = assay: Antibiofilm activity against Escherichia coli ATCC 25922 at 2 times MIC after 24 hrs by crystal violet staining based assay; assay type: functional, organism-based
Pseudomonas aeruginosa [18] = assay: Antibiofilm activity against Pseudomonas aeruginosa ATCC 27853 at 0.25 to 2 times of MIC after 24 hrs by crystal violet staining based assay; assay type: functional, organism-based
Escherichia coli [19] = assay: Antimicrobial activity against Escherichia coli ATCC 25922 at 1 mM preincubated for 6 hrs in presence of 2000 ug/ml trypsin and measured after 18 hrs by microplate reader analysis; assay type: functional, organism-based
Escherichia coli [20] = assay: Ratio of MIC for Escherichia coli ATCC 25922 preincubated for 1 hr in presence of 10% mouse serum and measured after 18 hrs to MIC for antibacterial activity against Escherichia coli ATCC 25922 after 18 hrs; assay type: functional
Escherichia coli [21] = assay: Induction of outer membrane permeabilization in Escherichia coli ATCC 25922 measured up to 12 mins by NPN-dye based assay; assay type: organism-based
Escherichia coli [22] = assay: Induction of inner membrane permeabilization in Escherichia coli ATCC 43837 assessed as increase in ONPG release at 4 times of MIC by ONPG dye based assay; assay type: organism-based
Escherichia coli [23] = assay: Induction of inner membrane permeabilization in Escherichia coli ATCC 43837 assessed as increase in ONPG release at 1 to 2 times of MIC by ONPG dye based assay; assay type: organism-based
Escherichia coli [24] = assay: Disruption of membrane integrity in Escherichia coli ATCC 25922 assessed as membrane damage by measuring PI fluorescence at 4 times of MIC incubated for 1 hr by PI dye based flow cytometric analysis (reference value: 1.35%); assay type: functional
Escherichia coli [25] = assay: Disruption of membrane integrity in Escherichia coli ATCC 25922 assessed as membrane damage by measuring PI fluorescence at 2 times of MIC incubated for 1 hr by PI dye based flow cytometric analysis (reference value: 1.35%); assay type: functional
Escherichia coli [26] = assay: Induction of membrane disruption in Escherichia coli ATCC 25922 assessed as rough membrane surface at 4 times of MIC after 2 hrs by SEM analysis; assay type: functional, organism-based
Escherichia coli [27] = assay: Induction of membrane disruption in Escherichia coli ATCC 25922 assessed as corrugated membrane surface at 4 times of MIC after 2 hrs by SEM analysis; assay type: functional, organism-based
Escherichia coli [28] = assay: Induction of membrane disruption in Escherichia coli ATCC 25922 assessed as degeneration in membrane at 4 times of MIC after 2 hrs by SEM analysis; assay type: functional, organism-based
DNA = assay: Binding affinity to Escherichia coli ATCC 25922 genomic DNA after 30 mins by agarose gel electrophoresis; assay type: nucleic-acid assay
Escherichia coli [29] = assay: Ratio of antibacterial activity against Escherichia coli ATCC 25922 in presence of NaCl to antibacterial activity against Escherichia coli ATCC 25922; assay type: functional
Escherichia coli [30] = assay: Ratio of antibacterial activity against Escherichia coli ATCC 25922 in presence of MgCl2 to antibacterial activity against Escherichia coli ATCC 25922; assay type: functional
Escherichia coli [31] = assay: Ratio of antibacterial activity against Escherichia coli ATCC 25922 in presence of FeCl3 to antibacterial activity against Escherichia coli ATCC 25922; assay type: functional
Staphylococcus aureus [32] = assay: Ratio of antibacterial activity against Staphylococcus aureus ATCC 25923 in presence of NaCl to antibacterial activity against Staphylococcus aureus ATCC 25923; assay type: functional
Staphylococcus aureus [33] = assay: Ratio of antibacterial activity against Staphylococcus aureus ATCC 25923 in presence of KCl to antibacterial activity against Staphylococcus aureus ATCC 25923; assay type: functional
Staphylococcus aureus [34] = assay: Ratio of antibacterial activity against Staphylococcus aureus ATCC 25923 in presence of MgCl2 to antibacterial activity against Staphylococcus aureus ATCC 25923; assay type: functional
Staphylococcus aureus [35] = assay: Ratio of antibacterial activity against Staphylococcus aureus ATCC 25923 in presence of FeCl3 to antibacterial activity against Staphylococcus aureus ATCC 25923; assay type: functional
Escherichia coli [36] = assay: Induction of membrane disruption in Escherichia coli ATCC 25922 assessed as fracture in membrane at 4 times of MIC after 2 hrs by SEM analysis; assay type: functional, organism-based
Escherichia coli [37] = assay: Induction of ROS generation in Escherichia coli ATCC 25922; assay type: functional, organism-based

Structure (SMILES) | MIC (Escherichia coli [1]) [µM] | MIC (Escherichia coli [2]) [µM] | MIC (Klebsiella pneumoniae [3]) [µM] | MIC (Pseudomonas aeruginosa [4]) [µM] | MIC (Staphylococcus aureus [5]) [µM] | MIC (Staphylococcus aureus [6]) [µM] | MIC (Bacillus subtilis) [µM] | MHC10 (Erythrocyte) [µM] | selectivity ratio [7] | fractional inhibitory concentration index (FICI) (Escherichia coli [8]) | fractional inhibitory concentration index (FICI) (Klebsiella pneumoniae [9]) | fractional inhibitory concentration index (FICI) (Pseudomonas aeruginosa [10]) | fractional inhibitory concentration index (FICI) (Escherichia coli [11]) | fractional inhibitory concentration index (FICI) (Klebsiella pneumoniae [12]) | fractional inhibitory concentration index (FICI) (Pseudomonas aeruginosa [13]) | Activity (Escherichia coli [14]) | inhibition (Escherichia coli [15]) | inhibition (Staphylococcus aureus [16]) | inhibition (Escherichia coli [17]) | inhibition (Pseudomonas aeruginosa [18]) | also measured
CCCCCCCC(=O)NC(Cc1cn(CCCC[C@H](NC(C)=O)C(=O)NCC(=O)N[C@@H](CC(C)C)C(=O)N[C@@H](CC(C)C)C(=O)N[C@H](CCCCN)C(=O)N[C@@H](CCCNC(=N)N)C(=O)N[C@H](C(=O)N[C@H](CCCCN)C(=O)N[C@H](C(=O)N[C@@H](CC(C)C)C(=O)N[C@@H](CC(C)C)C(N)=O)[C@@H](C)O)[C@@H](C)CC)nn1)C(=O)NCC(=O)N[C@@H](CC(C)C)C(=O)N[C@@H](CC(C)C)C(=O)N[C@H](CCCCN)C(=O)N[C@@H](CCCNC(=N)N)C(=O)N[C@H](C(=O)N[C@H](CCCCN)C(=O)N[C@H](C(=O)N[C@@H](CC(C)C)C(=O)N[C@@H](CC(C)C)C(N)=O)[C@@H](C)O)[C@@H](C)CC (stereo not given in full) | 4 (≈ 10.9 µg/mL) | 8 (≈ 21.8 µg/mL) | 16 (≈ 43.6 µg/mL) | 8 (≈ 21.8 µg/mL) | 16 (≈ 43.6 µg/mL) | 16 (≈ 43.6 µg/mL) | 2 (≈ 5.45 µg/mL) | 128 | 14.2 | 0.3125 | 0.3125 | 0.5625 | 0.5625 | 0.5625 | 0.5625 | Active | Dose-dependent effect | Dose-dependent effect | Active | Active | Activity (Escherichia coli [19]): Active; Ratio (Escherichia coli [20]): 2; Activity (Escherichia coli [21]): Dose-dependent effect; Activity (Escherichia coli [22]): Active; Activity (Escherichia coli [23]): Active; Activity (Escherichia coli [24]): 32.1%; Activity (Escherichia coli [25]): 13.4%; Activity (Escherichia coli [26]): Active; Activity (Escherichia coli [27]): Active; Activity (Escherichia coli [28]): Active; Activity (DNA): Dose-dependent effect; Ratio (Escherichia coli [29]): 2 - 4; Ratio (Escherichia coli [30]): 2 - 4; Ratio (Escherichia coli [31]): 2 - 4; Ratio (Staphylococcus aureus [32]): 2 - 4; Ratio (Staphylococcus aureus [33]): 2 - 4; Ratio (Staphylococcus aureus [34]): 2 - 4; Ratio (Staphylococcus aureus [35]): 2 - 4; Activity (Escherichia coli [36]): Active; Activity (Escherichia coli [37]): inactive
CCCC(=O)NC(Cc1cn(CCCC[C@H](NC(C)=O)C(=O)NCC(=O)N[C@@H](CC(C)C)C(=O)N[C@@H](CC(C)C)C(=O)N[C@H](CCCCN)C(=O)N[C@@H](CCCNC(=N)N)C(=O)N[C@H](C(=O)N[C@H](CCCCN)C(=O)N[C@H](C(=O)N[C@@H](CC(C)C)C(=O)N[C@@H](CC(C)C)C(N)=O)[C@@H](C)O)[C@@H](C)CC)nn1)C(=O)NCC(=O)N[C@@H](CC(C)C)C(=O)N[C@@H](CC(C)C)C(=O)N[C@H](CCCCN)C(=O)N[C@@H](CCCNC(=N)N)C(=O)N[C@H](C(=O)N[C@H](CCCCN)C(=O)N[C@H](C(=O)N[C@@H](CC(C)C)C(=O)N[C@@H](CC(C)C)C(N)=O)[C@@H](C)O)[C@@H](C)CC (stereo not given in full) | 16 (≈ 42.7 µg/mL) | 8 (≈ 21.3 µg/mL) | 32 (≈ 85.4 µg/mL) | 8 (≈ 21.3 µg/mL) | 128 (≈ 342 µg/mL) | 128 (≈ 342 µg/mL) | 4 (≈ 10.7 µg/mL) | > 256 | 32 | 0.3125 | 0.1875 | 0.375 | 0.3125 | 0.3125 | 0.375 | Active | Dose-dependent effect | Dose-dependent effect | Active | Active | Activity (Escherichia coli [19]): Active; Ratio (Escherichia coli [20]): 1; Activity (Escherichia coli [21]): Dose-dependent effect; Activity (Escherichia coli [22]): Active; Activity (Escherichia coli [23]): Active; Activity (Escherichia coli [24]): 43.2%; Activity (Escherichia coli [25]): 21.2%; Activity (Escherichia coli [26]): Active; Activity (Escherichia coli [27]): Active; Activity (Escherichia coli [28]): Active; Activity (DNA): Dose-dependent effect; Ratio (Escherichia coli [29]): 2 - 4; Ratio (Escherichia coli [30]): 2 - 4; Ratio (Escherichia coli [31]): 2 - 4; Ratio (Staphylococcus aureus [32]): 2 - 4; Ratio (Staphylococcus aureus [33]): 2 - 4; Ratio (Staphylococcus aureus [34]): 2 - 4; Ratio (Staphylococcus aureus [35]): 2 - 4; Activity (Escherichia coli [36]): Active; Activity (Escherichia coli [37]): Active
